We go through 54 molecules from patent publication US20240400546A1, “COMPOUNDS AND USES THEREOF” (JANSSEN PHARMACEUTICA NV, priority 2016, published 2024).

The target of the first assay is T1, SCD1 (Homo sapiens, UniProt O00767).
T1 construct: host or cells: S. cerevisiae ole1Δ strain, plasmid pRS316 with TDH3 promoter and CYC1 terminator
T1 sequence (O00767 1-359): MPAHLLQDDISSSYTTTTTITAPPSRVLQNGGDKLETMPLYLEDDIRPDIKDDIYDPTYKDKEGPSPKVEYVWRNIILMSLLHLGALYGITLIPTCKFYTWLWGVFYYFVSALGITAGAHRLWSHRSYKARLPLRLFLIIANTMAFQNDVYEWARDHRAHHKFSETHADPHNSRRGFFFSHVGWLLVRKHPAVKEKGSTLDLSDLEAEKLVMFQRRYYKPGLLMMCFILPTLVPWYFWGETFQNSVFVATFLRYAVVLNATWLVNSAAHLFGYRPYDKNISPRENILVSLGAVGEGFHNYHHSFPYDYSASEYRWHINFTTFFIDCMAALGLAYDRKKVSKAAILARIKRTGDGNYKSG
Nature of the assay: Growth inhibition of humanized yeast expressing SCD1 as sole desaturase. The class given is cell-based. Particulars: humanized yeast expressing SCD1. The protocol: Strain ole1Δ (yeast ole1 deletion mutant) was constructed by deleting OLE1 with NAT-MX6 in BY4741, amplifying the deletion cassette from the genomic DNA of the resulting strain with primers flanking the ORF by 1000 bp upstream and downstream, transforming the resulting deletion cassette into W303 pdr1Δ pdr3Δ, and plating transformants on YPD media containing G418 (200 μg/mL) and nourseothricin (100 μg/mL) with 0.01% TWEEN®-20 and 0.5 mM oleic and palmitoleic acids.
The coding sequence of yeast OLE1 was also cloned into this plasmid). These clones were then transformed into the ole1Δ strain and plated on CSM-Ura media (CSM lacking uracil) with 2% glucose (w/v) and independent colonies were isolated and amplified.
All compound profiling experiments were performed using the same basic protocol. Different genetic backgrounds (e.g., gene deletions) or conditions (e.g., addition of oleic and palmitoleic acid) were replaced as indicated below.
Yeast were cultured using standard techniques in complete synthetic media (CSM) and yeast nitrogen base supplemented with 2% (w/v) carbon source (glucose, raffinose, or galactose) to regulate the expression of the toxic disease protein. An initial starter culture was inoculated in 3 mL CSM-Glucose media and incubated overnight in a 30° C. shaker incubator (225 rpm). Saturated morning cultures were then diluted 1:20 in fresh CSM-Raffinose media and grown for 6 h to an OD600 (optical density) of ˜0.4-0.8 at 30° C. with shaking.
Compound administration was performed in two separate steps. First, 15 μL of CSM-Galactose (induces expression of toxic protein) was dispensed into clear 384 well assay plates using a MULTIDROP™ Combi reagent dispenser. […] The cultures described above were then diluted to a 2× concentration (0.03 and 0.08 for alpha-synuclein and ApoE, final OD600 of 0.015 and 0.04) in CSM-Galactose. For wild-type and Ole1/SCD1/SCD5 plasmid-containing strains, the 2× cell density was 0.02. […] For 96-well assays (FIGS. 1A and 1B), compound dilutions in DMSO were generated in 96 well plates and 1 μL was manually pipetted into 96 well clear bottom assay plates.
For experiments using a plasmid-borne copy of Ole1, SCD1, or SCD5 (FIGS. 3B, 6, and 7), media lacking uracil (SX-Ura, where X is glucose, raffinose, or galactose), was used for all steps of the compound profiling protocol to ensure its maintenance throughout the assay.
After yeast delivery, assay plates were incubated under humidified conditions at 30° C. for 24 to 40 h. ApoE4 rescue experiments were stopped at 24 h, aSyn experiments at 40 h, Ole1 at 24 h, and SCD1/SCD5 at 40 h. The growth of yeast was monitored by reading the OD600 of each well using a microplate reader (Perkin Elmer EnVision™).
Turning to `COc1cccc(-c2noc(C3CC(=O)N(c4ccc(C)c(C)c4)C3)n2)c1` (stereo not drawn) [Compound 489], the half-inhibitory concentration (IC50) (usually the concentration at which inhibition is half-maximal) was 41 µM.
With `COc1ccc(-c2noc(CCNC(=O)COc3cc(O)c4c(c3)OC(C)(C)CC4=O)n2)cc1OC` [Compound 486], the half-inhibitory concentration (IC50) is > 45 µM.
As for `CCN(Cc1nc(-c2ccc(OC)c(OC)c2)no1)C(=O)Cc1ccccc1` [Compound 492], the IC50 is > 45 µM.
Take `CCN(Cc1nc(-c2ccc3c(c2)N(CC)C(=O)CO3)no1)C(=O)Cc1cccc2ccccc12` [Compound 494]: the IC50 was > 45 µM.

Staying with this assay, now noted: humanized yeast expressing human SCD1.
On to `COC(=O)N1CCC(c2nc(-c3ccc4c(C)nn(C)c4c3)no2)CC1` [Compound 273], for which the half-inhibitory concentration (IC50) was > 45 µM.
Turning to `CC(C)n1ncc2ccc(N3CC4(CCN(C(=O)c5ccccc5Cl)CC4)C3)cc21` [Compound 534], the concentration for half-maximal inhibition (IC50) was > 45 µM.
Regarding `Cc1nn(C)c2cc(-c3noc(C4CCN(C(=O)CNC(=O)c5cc(Cl)ccc5C(F)(F)F)CC4)n3)ccc12` [Compound 328], the 50% inhibitory concentration (IC50) is > 45 µM.
Same read-out and setting: the same measure for `CC(C)n1ncc2ccc(-c3noc(N4CCN(C(=O)c5ccccc5Cl)CC4)n3)cc21` [Compound 364]: > 45 µM; for `Cc1noc2cc(-c3noc(C4CCN(C(=O)OC5(C)CC5)CC4)n3)ccc12` [Compound 590]: > 45 µM.
Regarding `Cc1nn(C)c2cc(-c3noc(C4CCN(C(=O)NC(C)(C)C)CC4)n3)ccc12` [Compound 282], the concentration for half-maximal inhibition (IC50) is > 45 µM.
Turning to `Cc1nn(C)c2cc(-c3noc(C4CCN(C(=O)CC5COC5)CC4)n3)ccc12` [Compound 592], the IC50 is > 45 µM.
On the same count and under the same terms, with `CC1(OC(=O)N2CCC(c3nc(-c4ccc5cnn(C6COC6)c5c4)no3)CC2)CC1` [Compound 576] the figure was > 45 µM; with `Cn1ncc2ccc(-c3noc(N4CCN(C(=O)OC(C)(C)C)CC4)n3)cc21` [Compound 545], > 45 µM; with `O=C(NCC(=O)N1CCC(c2nc(-c3ccc4cnn(C5COC5)c4c3)no2)CC1)c1ccccc1` [Compound 598], > 45 µM.
For `CC(C)c1ccc(C(=O)N2CCC(c3nc(N4CC5(CCCO5)C4)no3)CC2)cc1` [Compound 336], the IC50 is > 45 µM.
With `CC(C)n1ncc2ccc(-c3noc(N4C[C@H]5CN(C(=O)CC(C)(C)C)C[C@H]5C4)n3)cc21` [Compound 497], the IC50 was > 45 µM.
`CC(C)n1ncc2ccc(-c3noc(C4CCN(C(=O)CNC(=O)c5cccc(C#N)c5)CC4)n3)cc21` [Compound 556]: the half-inhibitory concentration (IC50) was > 45 µM.
Turning to `Cc1c2ccc(-c3noc(C4CCN(C(=O)CNC(=O)c5ccccc5)CC4)n3)cc2nn1C(C)C` [Compound 289], the concentration for half-maximal inhibition (IC50) is > 45 µM.
Consider `CC(C)n1ncc2ccc(-c3nc(C4CCN(C(=O)c5cccc(F)c5)CC4)no3)cc21` [Compound 506], for which the half-inhibitory concentration (IC50) is > 45 µM.
Same read-out and setting: the same measure for `CC(C)CS(=O)(=O)N1CCC(c2nc(-c3ccc4cnn(C(C)C)c4c3)no2)CC1` [Compound 565]: > 45 µM; for `Cc1nn(C)c2cc(-c3noc(C4CCN(C(=O)N5CCOCC5)CC4)n3)ccc12` [Compound 311]: > 45 µM; for `COC(=O)N1CCN(c2nc(-c3ccc4cnn(C(C)C)c4c3)no2)CC1` [Compound 356]: > 45 µM.
Same read-out and setting: the same measure for `COc1ccc(-c2noc(C3CCN(C(=O)CNC(=O)c4ccccc4)CC3)n2)cc1OC(C)C` [Compound 274]: > 45 µM; for `CC(C)n1ncc2ccc(-c3noc(N4C[C@@H]5CN(C(=O)CC(C)(C)C)C[C@H]5C4)n3)cc21` [Compound 569]: > 45 µM; for `Cn1ncc2ccc(-c3noc(C4CCN(C(=O)OC(C)(C)C)CC4)n3)cc21` [Compound 359]: > 45 µM.
As to `CC(C)n1ncc2ccc(-c3noc(N4CCN(C(=O)CC5(C)CC5)CC4)n3)cc21` [Compound 495], the IC50 was > 45 µM.
For `Cc1nn(C)c2cc(-c3noc(C4CCN(C(=O)c5ccc(Cl)cc5)CC4)n3)ccc12` [Compound 291], the 50% inhibitory concentration (IC50) is > 45 µM.
As to `Cc1nn(C)c2cc(-c3noc(N4CCN(C(=O)N5CCCCC5)CC4)n3)ccc12` [Compound 327], the concentration for half-maximal inhibition (IC50) was > 45 µM.
Take `Cc1nn(C)c2cc(-c3noc(C4CCN(C(=O)CNC(=O)c5ccc(C(F)(F)F)cc5)CC4)n3)ccc12` [Compound 317]: the IC50 is > 45 µM.
`C[C@@H](O)C(=O)N1CCC(c2nc(-c3ccc4cnn(C5COC5)c4c3)no2)CC1` [Compound 597]: the IC50 was > 45 µM.
In the case of `N#Cc1cccc(N2C[C@@H](C(=O)N3CCC(c4nc(-c5ccc6cnn(C7COC7)c6c5)no4)CC3)CC2=O)c1` [Compound 599], the IC50 was > 45 µM.
Still for that read-out and setting: with `Cc1nn(C)c2cc(-c3noc(C4CCN(C(=O)CNC(=O)c5ccc(Cl)cc5)CC4)n3)ccc12` [Compound 269] the figure was > 45 µM; with `CC(C)n1ncc2ccc(-c3noc(N4CCN(C(=O)OCC(F)(F)F)CC4)n3)cc21` [Compound 593], > 45 µM; with `Cc1nn(C)c2cc(-c3noc(C4CCN(C(=O)N[C@@H]5C[C@@H]5c5ccccc5)CC4)n3)ccc12` [Compound 329], > 45 µM.
In the case of `CC(C)n1ncc2ccc(-c3noc(C4CCN(C(=O)c5ccsn5)CC4)n3)cc21` [Compound 588], the IC50 is > 45 µM.
Still for that read-out and setting: the same measure for `CC(C)n1ncc2ccc(N3CC4(CCNCC4)C3)cc21` [Compound 538]: > 45 µM; for `CC(C)(C)OC(=O)N1CCC(c2nc(-c3ccc4cnn(C5CC5)c4c3)no2)CC1` [Compound 360]: > 45 µM; for `O=C(c1ccccc1)N1CCC(c2nc(N3CC4(CCCO4)C3)no2)CC1` [Compound 335]: > 45 µM.
`CC(C)n1ncc2ccc(-c3nc(C4CCN(C(=O)c5ccc(Cl)cc5)CC4)no3)cc21` [Compound 505]: the IC50 was > 45 µM.
Regarding `CC(C)n1cc2ccc(-c3noc(C4CCN(C(=O)OC(C)(C)C)CC4)n3)cc2n1` [Compound 277], the half-maximal inhibitory concentration (IC50) was > 45 µM.
For `CCOC(=O)N1CCC(c2nc(-c3ccc4cnn(C(C)C)c4c3)no2)CC1` [Compound 361], the IC50 is > 45 µM.
Turning to `CCn1nc2cc(-c3noc(C4CCN(C(=O)CNC(=O)c5ccccc5)CC4)n3)ccc2c1C` [Compound 320], the IC50 was > 45 µM.
Take `CC(C)n1ncc2ccc(-c3nc(N4CCN(C(=O)c5ccccc5)CC4)no3)cc21` [Compound 582]: the IC50 was > 45 µM.
Consider `CCc1nn(C)c2cc(-c3noc(C4CCN(C(=O)CNC(=O)c5ccccc5)CC4)n3)ccc12` [Compound 309], for which the IC50 is > 45 µM.
For the molecule `COC(=O)N[C@H]1CC[C@@H](c2nc(-c3ccc4c(C)nn(C)c4c3)no2)CC1` [Compound 550], the IC50 is > 45 µM.
Turning to `CC(C)n1ncc2ccc(-c3noc(C4CCN(C(=O)c5ccc(Cl)c(F)c5)CC4)n3)cc21` [Compound 541], the IC50 was > 45 µM.
As to `CC(C)n1ncc2ccc(-c3noc([C@H]4CC[C@H](N)CC4)n3)cc21` [Compound 596], the half-inhibitory concentration (IC50) was > 45 µM.
On to `Cn1c(=O)n(C)c2cc(-c3noc(C4CCN(C(=O)[C@H]5CC(=O)N(c6ccccn6)C5)CC4)n3)ccc21` [Compound 256], for which the 50% inhibitory concentration (IC50) was > 45 µM.
With `Cc1nn(C)c2cc(-c3noc(C4CN(C(=O)OC(C)(C)C)C4)n3)ccc12` [Compound 365], the IC50 was > 45 µM.
Take `CC(C)n1ncc2ccc(-c3noc(C4CCN(C(=O)c5ccc(F)cc5)CC4)n3)cc21` [Compound 544]: the IC50 was > 45 µM.
On to `Cc1nn(C)c2cc(-c3noc(C4CCN(C(=O)CC5CN(C(=O)OC(C)(C)C)C5)CC4)n3)ccc12` [Compound 502], for which the IC50 was > 45 µM.
`COc1cc(-c2noc(C3CCN(C(=O)CNC(=O)c4ccccc4)CC3)n2)ccc1OC1CC1` [Compound 249]: the IC50 is > 45 µM.
`CC(C)n1ncc2ccc(-c3noc(C4CCN(C(=O)c5nccs5)CC4)n3)cc21` [Compound 549]: the IC50 is > 45 µM.
On the same count and under the same terms, with `Cc1nn(C)c2cc(-c3noc(C4CCN(C(=O)c5ccccc5)CC4)n3)ccc12` [Compound 280] the figure was > 45 µM.
